In the Deep4Chem optical property database one finds emission maximum data, which are given here for 28 molecules.

One data set in a line: solvent given as SMILES. The conditions noted are these: in CO.
`COc1nc(Nc2cc3ccc4cccc5ccc(c2)c3c45)nc(OC)n1` gave an emission maximum of 392 nm. For `N#Cc1c(-n2nnc3ccccc32)n([C@H]2C[C@H](O)[C@@H](CO)O2)c2ncnc(N)c12`, the emission maximum worked out at 416 nm. As to `CC1(C)CC(=O)C2=C(C1)Oc1ccc3cc(O)ccc3c1C2c1ccccn1` (stereo not drawn), the emission maximum came to 377 nm. `Cc1ccc(C2=C3C=CC=[N+]3[B-](F)(F)n3cccc32)cc1`: the emission maximum is listed as 513.5 nm. `C/C(=N\Nc1ccc(C#N)cc1)c1ccccn1` displayed an emission maximum of 482 nm. The same measure, in the same setting: the value for `COc1ccc(/C=C/C(=O)c2ccccc2O)cc1OC` was 510 nm; that for `COC(=O)C(Cc1ccc2oc(-c3ccc(N(c4ccccc4)c4ccccc4)cc3)nc2c1)NC(=O)OC(C)(C)C` (stereo not drawn) was 486 nm; that for `CCC1=C(C)C2=Cc3c4ccccc4c4n3[B-](c3cc[n+](C)cc3)(Oc3ccccc3-4)[N+]2=C1C=Cc1ccc(OC)cc1` (stereo not drawn) was 717 nm.

Staying with this data set, now noted: in COCCOC.
On to `COC(=O)C(Cc1ccc2oc(-c3ccc(N(c4ccccc4)c4ccccc4)cc3)nc2c1)NC(=O)OC(C)(C)C` (stereo not drawn), for which the emission maximum came out at 453.75 nm.

Staying with this data set, now noted: in CS(C)=O.
`CCCCCCN(c1ccccc1)c1ccc(/C=C/c2cc(=O)oc3cc(C)ccc23)cc1` yielded an emission maximum of 583 nm. As to `CN(C)c1ccc2cc(C3=[O+][B-](F)(F)OC(c4ccccc4)=C3)ccc2c1`, the emission maximum came out at 422 nm.

As to `C/C(=N\Nc1ccc(C#N)cc1)c1ccccn1`, the emission maximum was determined as 475 nm.

As to `COc1ccc(/C=C/C(=O)c2ccccc2O)cc1OC`, the emission maximum was 480 nm. Still for that read-out and setting: the value for `COC(=O)C(Cc1ccc2oc(-c3ccc(N(c4ccccc4)c4ccccc4)cc3)nc2c1)NC(=O)OC(C)(C)C` (stereo not drawn) was 474.5 nm. `CCC1=C(C)C2=Cc3c4ccccc4c4n3[B-](c3cc[n+](C)cc3)(Oc3ccccc3-4)[N+]2=C1C=Cc1ccc(OC)cc1` (stereo not drawn) displayed an emission maximum of 727 nm.

Staying with this data set, now noted: in Cc1ccccc1.
Molecule `CN(C)c1ccc(C2=Nc3sc4c(F)c(F)c(F)c(F)c4[n+]3[B-](F)(F)O2)cc1` returned an emission maximum of 464 nm. In turn, `CCCN1/C(=C\c2c(-c3ccc(N(C)C)cc3)c(=O)c2=O)C=Cc2ccccc21` showed an emission maximum of 435 nm. The molecule `CN(C)c1ccc2cc(C3=[O+][B-](F)(F)OC(c4ccccc4)=C3)ccc2c1` showed an emission maximum of 573 nm. `c1ccc(-c2nc(-c3ccccc3)nc(-c3ccc(N4c5ccccc5CCc5ccccc54)cc3)n2)cc1` showed an emission maximum of 422.22 nm. Molecule `O=S1(=O)C2=C(c3ccc(-c4ccc(N(c5ccccc5)c5ccccc5)cc4)cc31)C1(C3=C(c4ccccc41)S(=O)(=O)c1cc(-c4ccc(N(c5ccccc5)c5ccccc5)cc4)ccc13)c1ccccc12` yielded an emission maximum of 543 nm. As for `CC1(C)c2ccccc2-n2c(-c3ccc(-n4c5ccc(-n6c7ccccc7c7ccccc76)cc5c5cc(-n6c7ccccc7c7ccccc76)ccc54)cc3)nc3cccc1c32`, the emission maximum is 401 nm. Turning to `CCCCOC(=O)c1cc(Oc2ccc(C(C)(C)C)cc2)c2c3c(Cl)cc4c5c(cc(Cl)c(c6c(Oc7ccc(C(C)(C)C)cc7)cc(C(=O)OCCCC)c1c26)c53)C(=O)N(c1c(C(C)C)cccc1C(C)C)C4=O`, the emission maximum was 589 nm.

For the molecule `COc1ccc(N(c2ccccc2)c2ccc(OC)cc2)cc1`, the emission maximum is reported as 387 nm.

Staying with this data set, now noted: in ClC(Cl)Cl.
For `CC(C)(C)c1ccc(Oc2cc3c4c(cc(Oc5ccc(C(C)(C)C)cc5)c5c6c(Oc7ccc(C(C)(C)C)cc7)cc7c8c(cc(Oc9ccc(C(C)(C)C)cc9)c(c2c45)c86)C(=O)OC7=O)C(=O)OC3=O)cc1`, the emission maximum was determined as 615 nm. `CCCCCCN(c1ccccc1)c1ccc(/C=C/c2cc(=O)oc3cc(C)ccc23)cc1`: the emission maximum is recorded as 544 nm. Still for that read-out and setting: the value for `CCCCCCN1C(=O)C(c2ccc(-c3ccc(-n4c5ccccc5c5ccccc54)cc3)cc2)=C(c2ccc(-c3ccc(-n4c5ccccc5c5ccccc54)cc3)cc2)C1=O` was 552 nm; that for `CN(C)c1ccc2cc(C3=[O+][B-](F)(F)OC(c4ccccc4)=C3)ccc2c1` was 613 nm; that for `C/C(=N\Nc1ccc(C#N)cc1)c1ccccn1` was 460 nm. Still for that read-out and setting: for `COc1ccc(/C=C/C(=O)c2ccccc2O)cc1OC` the value was 462 nm; for `Cc1ccccc1CN(Cc1ccccc1C)c1nc(C#N)c(N(Cc2ccccc2C)Cc2ccccc2C)nc1C#N`, 582 nm. As for `COC(=O)c1ccc2cc(C#N)c3ccc4ccccc4c3c2c1`, the emission maximum is 422 nm. In turn, `COC(=O)C(Cc1ccc2oc(-c3ccc(N(c4ccccc4)c4ccccc4)cc3)nc2c1)NC(=O)OC(C)(C)C` (stereo not drawn) came in with an emission maximum of 445 nm.

Still in this data set, the particulars now being: in ClCCl.
Regarding `CC(C)(C)c1ccc(-n2c(-c3ccc(-c4ccc(-c5c(-c6ccccc6)nc6ccccn56)cc4)cc3)nc3c4ccccc4c4ccccc4c32)cc1`, the emission maximum is reported as 426 nm. Same read-out and setting: for `CN(C)c1ccc(C2=Nc3sc4c(F)c(F)c(F)c(F)c4[n+]3[B-](F)(F)O2)cc1` the value was 483 nm; for `CCCN1/C(=C\c2c(-c3ccc(N(C)C)cc3)c(=O)c2=O)C=Cc2ccccc21`, 585 nm.

`CC(C)[Si](C#Cc1c2cc3ccccc3cc2c(C#C[Si](C(C)C)(C(C)C)C(C)C)c2cc3ccccc3cc12)(C(C)C)C(C)C`: the emission maximum is given as 649 nm.

In turn, `CN(C)c1ccc2cc(C3=[O+][B-](F)(F)OC(c4ccccc4)=C3)ccc2c1` yielded an emission maximum of 650 nm. Take `Cc1cc(-c2cccc3ccccc23)cc(C)[o+]1`: the emission maximum is on record as 554 nm. `COc1ccc(/C=C/C(=O)c2ccccc2O)cc1OC` displayed an emission maximum of 460 nm. Molecule `O=S1(=O)C2=C(c3ccc(-c4ccc(N(c5ccccc5)c5ccccc5)cc4)cc31)C1(C3=C(c4ccccc41)S(=O)(=O)c1cc(-c4ccc(N(c5ccccc5)c5ccccc5)cc4)ccc13)c1ccccc12` registered an emission maximum of 624 nm. On to `CC1=C(I)C(C)=[N+]2C1=C(c1c(-c3ccccn3)nc3ccccn13)c1c(C)c(I)c(C)n1[B-]2(F)F`, for which the emission maximum was determined as 580 nm. As to `COC(=O)C(Cc1ccc2oc(-c3ccc(N(c4ccccc4)c4ccccc4)cc3)nc2c1)NC(=O)OC(C)(C)C` (stereo not drawn), the emission maximum came out at 451.25 nm. In the case of `Cc1cccc(-c2c3ccccc3cc3ccccc23)n1`, the emission maximum stood at 418 nm.

Staying with this data set, now noted: in N#Cc1ccccc1.
Take `COC(=O)C(Cc1ccc2oc(-c3ccc(N(c4ccccc4)c4ccccc4)cc3)nc2c1)NC(=O)OC(C)(C)C` (stereo not drawn): the emission maximum was 461.25 nm.

The data set is the same for the next values; noted with them: in NC=O.
As for `COC(=O)C(Cc1ccc2oc(-c3ccc(N(c4ccccc4)c4ccccc4)cc3)nc2c1)NC(=O)OC(C)(C)C` (stereo not drawn), the emission maximum is 491.5 nm.

Staying with this data set, now noted: in O.
In turn, `CC1(C)CC(=O)C2=C(C1)Oc1ccc3cc(O)ccc3c1C2c1ccccn1` (stereo not drawn) returned an emission maximum of 378 nm.

Consider `CC[N+]1(CC)CN2C(=N1)C(C(=O)O)=Cc1ccc(C)cc12`, for which the emission maximum turned out to be 457 nm.

Turning to `COC(=O)C(Cc1ccc2oc(-c3ccc(N(c4ccccc4)c4ccccc4)cc3)nc2c1)NC(=O)OC(C)(C)C` (stereo not drawn), the emission maximum came to 502.99 nm.

Staying with this data set, now noted: in O=P(c1ccccc1)(c1ccccc1)c1ccccc1Oc1ccccc1P(=O)(c1ccccc1)c1ccccc1.
`CC1(C)c2ccccc2-n2c(-c3ccc(-n4c5ccc(-n6c7ccccc7c7ccccc76)cc5c5cc(-n6c7ccccc7c7ccccc76)ccc54)cc3)nc3cccc1c32`: the emission maximum was found to be 409 nm.

Still in this data set, the particulars now being: in OCC(F)(F)F.
`Cc1ccc(C2=C3C=CC=[N+]3[B-](F)(F)n3cccc32)cc1` yielded an emission maximum of 509.5 nm. Molecule `COC(=O)C(Cc1ccc2oc(-c3ccc(N(c4ccccc4)c4ccccc4)cc3)nc2c1)NC(=O)OC(C)(C)C` (stereo not drawn) displayed an emission maximum of 496.25 nm.

Still in this data set, the particulars now being: in c1ccc2c(c1)c1ccccc1n2-c1ccc(-c2ccc(-n3c4ccccc4c4ccccc43)cc2)cc1.
`CCCCCCN1C(=O)C(c2ccc(-c3ccc(-n4c5ccccc5c5ccccc54)cc3)cc2)=C(c2ccc(-c3ccc(-n4c5ccccc5c5ccccc54)cc3)cc2)C1=O` yielded an emission maximum of 580 nm.

Staying with this data set, now noted: in c1ccccc1.
The molecule `CCOC(=O)CSc1nc(-c2ccc(OC)cc2)c(C)c(C#N)c1C#N` came in with an emission maximum of 432 nm.
